# Test results taken from patent US10464885B2, “Compound, preparation method therefor, applications thereof, corresponding targeted drug delivery system, chemotherapy drugs, and treatment method” (BEIJING XINDE RUNXING TECHNOLOGY CO., LTD., priority 2015, dated 2019).
# How the values were obtained:
# [1] = tested on: patients with relapsed SCLC; settings: cited from earlier work
# Jurkat cell line = experiment: Cell viability CCK-8 assay, Jurkat cell suspension; type: cell-based; settings: six concentrations 0.041 μM-10 μM; 24 h, 48 h and 72 h; OD at 450 nm
# Description: Test cell line: Jurkat cell line (purchased from Nanjing Cobioer Co., Ltd.)
# Experimental method: Cell viability CCK-8 assay
# Experimental design: within a dose concentration range of 0.041 μM-10 μM, six concentrations were designed with three-fold increments, including 0.041 μM, 0.123 μM, 0.367 μM, 1.1 μM, 3.3 μM and 10 μM.
# 1. A Jurkat cell suspension was prepared and inoculated to the 96-well plate at an amount of 5×10^4/well.
# 2. The Jurkat cell suspension was directly added to different concentrations of NIC-1 and control drug N-(2-chloro-4-nitrophenyl)-5-chloro-2-hydroxybenzamide, followed by culture in an incubator at 37° C. for 24 h, 48 h and 72 h respectively; CCK8 was measured by adding CCK8 to each well at an amount of 10 μl/well, culturing for 2-3 h and detecting a value of OD at 450 nm using a microplate reader.
# Experimental results: the outcomes of the synthesized compound NIC-1 of the present invention and the control drug N-(2-chloro-4-nitrophenyl)-5-chloro-2-hydroxybenzamide in the six concentrations were compared with those of the blank control, respectively. […]
# [2] = tested on: small cell lung cancer cell line H446; experiment: H446 cell colony in vitro formation assay (crystal violet staining); type: cell-based; settings: Day 7 (one week)
# Description: Test cell line: small cell lung cancer cell line H446 (purchased from Shanghai Beinuo Life Science Co., Ltd.) Experimental method: H446 cell colony in vitro formation assay
# Detection method: crystal violet staining
# On Day 1, a 6-well plate (Transwell, batch No. 3428, manufactured by Corning Incorporated) was adopted as cell plate, with 2000 cells/well per plate.
# On Day 2, after microscopic observation of cell adherence, a 1 ml medium containing the drug was loaded to each well, with settings of 2 wells in one group and totally three groups: A. 6 μmol/L, a. 6 μmol/L (multiple wells); B. blank (no drug); b. blank (no drug, multiple wells); C. 12 μmol/L; c. 12 μmol/L (multiple wells); the drugs were changed every three days, and the observation was performed every day.
# On Day 7, cell colonies were visually observed at the bottom of the vessel, and the cells were collected by: discarding the culture medium in each well, washing cells with phosphate buffered saline (PBS) twice for 5 minutes each time, adding 500 μl crystal violet stain solution to each well for staining at room temperature for 15 minutes, washing cells with PBS twice for 5 minutes each time, and finally detecting on a WB analyzer.
# [3] = tested on: small cell lung cancer cell line H446; experiment: Cell viability CCK-8 assay, H446; type: cell-based; settings: 48 h after dosing
# Excerpt: Test cell line: small cell lung cancer cell line H446 (purchased from Shanghai Beinuo Life Science Co., Ltd.)
# Cell viability CCK-8 assay: CCK8 assay, with a reagent containing 2-(2-methoxy-4-nitrophenyl)-3-(4-nitrophenyl)-5-(2,4-disulfophenyl)-2H-tetrazole monosodium salt (WST-8), is reduced by dehydrogenase in the cells in the presence of electron carrier 1-methoxy-5-methylphenazinium […] (1-Methoxy PMS), to obtain a highly water-soluble yellow formazan product (Formazan), and the count of viable cells is positively associated with the amount of obtained formazan product. Thus, CCK8 assay can be directly used for the evaluation of cell proliferation and toxicity analysis.
# Each well of 96-well plate was loaded at an amount of 7×10^3 cells/well. After 24 h plating, 200 μl of solution was supplied to each well. NIC-1, vp-16 and blank were applied to the plate in four concentrations: concentration 1=1.528 μm, concentration 2=1.528 μm*2, concentration 3=1.528 μm*5, concentration 4=1.528 μm*10, wand each group was made in triplicate.
# The plate was harvested 48 h after dosing, by:
# discarding 200 μl solution in each well, adding 100 μl solution (90 μl medium+10 μl CCK8 stock solution) to each well, placing the plate in a 37° C. incubator for about 1 hour, and measuring a value of OD at 450 nm using a microplate reader.
# The small cell lung cancer cell line H446 was treated with NIC-1 and etoposide (vp16) for […] respectively, and then the cell viability was detected by CCK-8 assay.
# The synthesized compound NIC-1 of the present invention in the concentrations of 1.528 μM, 3.056 μM, 7.64 μM and 15.28 μM was compared with etoposide (vp16) and blank control, respectively. As shown in FIGS. 5-8, a chart of comparison of the inhibitory effect on the cell viability of small cell lung cancer cell line H446 was shown in each figure, wherein the horizontal axis represented the blank control, NIC-1, vp-16 and corresponding dosage concentrations, and the vertical axis represented measured OD values.
# [4] = Solubility in solvents (experimental results); type: physicochemical
# Excerpt: The molecular weight is 367.9967.
# human body = settings: oral treatment of taeniasis, adults and children; cited from earlier work
# [5] = oral, Day 1, 8 and 15 of 28 days
structure (smiles),measurement,setting,value
CC[C@@]1(O)C(=O)OCc2c1cc1n(c2=O)Cc2cc3c(CN(C)C)c(O)ccc3nc2-1 [topotecan],dose at which dose-limiting toxicity (DLT) appeared,[1]; [5],4.5 mg/m^2
same,maximum tolerated dose (MTD),[1]; [5],4 mg/m^2
same,II degree thrombocytopenia,[1]; weekly oral,16.7%
same,II-III degree anemia,[1]; weekly oral,33.3%
same,II-III degree fever,[1]; weekly oral,44.4%
same,II-III degree neutropenia,[1]; weekly oral,27.8%
same,median progression-free survival (PFS),[1]; weekly oral,2.3 months
same,median survival (OS),[1]; weekly oral,5.1 months
"CC(=O)Oc1ccc(Cl)cc1C(=O)Nc1ccc([N+](=O)[O-])cc1Cl [NIC-1, N-(2-chloro-4-nitrophenyl)-5-chloro-2-acetoxybenzamide]",inhibitory effect on cell viability of Jurkat cell line compared with control drug,Jurkat cell line,superior to the control drug
same,inhibition of growth of H446 cells (colony formation),[2]; 6 μmol/L,partially inhibited
same,inhibition of growth of H446 cells (colony formation),[2]; 12 μmol/L,completely inhibited
same,inhibitory effect on cell viability of H446 compared with etoposide (vp16),[3]; 1.528 μM,slightly better than etoposide (vp16)
same,inhibitory effect on cell viability of H446 compared with etoposide (vp16),[3]; 3.06 μM,significantly better than etoposide (vp16)
same,inhibitory effect on cell viability of H446 compared with etoposide (vp16),[3]; 7.64 μM,significantly better than etoposide (vp16)
same,inhibitory effect on cell viability of H446 compared with etoposide (vp16),[3]; 15.28 μM,significantly better than etoposide (vp16)
same,solubility in dichloromethane,[4]; dichloromethane,soluble
same,solubility in ethanol,[4]; ethanol,slightly soluble
same,solubility in ether,[4]; ether,slightly soluble
same,solubility in water,[4]; water,insoluble
O=C(Nc1ccc([N+](=O)[O-])cc1Cl)c1cc(Cl)ccc1O [N-(2-chloro-4-nitrophenyl)-5-chloro-2-hydroxybenzamide],side effects,human body,"occasional side effects manifested by fatigue, dizziness, chest tightness, gastrointestinal disorders, fever and itching"
